Our source for the TGI values is PubChem BioAssay (NCI).

Holding throughout (assay): NCI tumour cell line growth inhibition, 48 h
The test system of assay [1] is A549 NSCLC.
Assay [2] concerns ACHN renal.
Assay [3] relates to COLO 205 colon.
In assay [4] the test system is HCT-15 colon.
Assay [5] relates to HS 578T breast.
Assay [6] deals with MALME-3M melanoma.
Assay [7] deals with OVCAR-3 ovarian.
The subject of assay [8] is OVCAR-5 ovarian.
Assay [9] concerns OVCAR-8 ovarian.
Assay [10] deals with SF-295 CNS.
Assay [11] relates to SF-539 CNS.
The test system of assay [12] is SW-620 colon.
The subject of assay [13] is T-47D breast.
The test system of assay [14] is TK-10 renal.
In assay [15] the test system is U251 CNS.
Assay [16] has as its system HOP-92 NSCLC.

SMILES strings stand for the structures.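 Values below derive from 48-hour exposures of cells grown in 96-well plates, with endpoints linearly interpolated between the two concentrations bracketing the appropriate inhibition level. TGI marks complete inhibition of growth.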 Where only a bound is given, the exact number is not on record here.

Regarding `Cc1[nH]c2ncn3nc(C(Cl)(Cl)Cl)nc3c2c1Cc1ccccc1`, the TGI in [1], in assay [2], in [3], in assay [4], in assay [5] and in [6] was greater than 100 µM throughout. The TGI in assay [7], in [8], in assay [9], in assay [10], in [11] and in assay [12] was greater than 100 µM in each case. Besides, the TGI in assay [13], in assay [14] and in assay [15] was greater than 100 µM in each case.

Regarding `CSC(SC)=C1CC(=O)Nc2ccccc2C1=O`, the TGI in assay [1] is greater than 100 µM; in assay [2], greater than 100 µM; in assay [3], greater than 100 µM; in [4], greater than 100 µM; in [16], 78.4 µM; in [5] it was greater than 100 µM. For the same molecule, the TGI in [6], in assay [7], in assay [8], in assay [9], in assay [10] and in assay [11] was greater than 100 µM each time. Besides, the TGI in [13] is 56.5 µM; in assay [14], greater than 100 µM; in assay [15] it was greater than 100 µM.

Consider `CC1C(c2ccc(F)cc2)c2cc3c(cc2OC1N1CCCC1)OCO3` (stereo not given), for which the TGI is greater than 100 µM in [1]; greater than 100 µM in assay [2]; greater than 100 µM in [3]; greater than 100 µM in assay [4]; 45.7 µM in [16]; 54.8 µM in assay [5]. The TGI in assay [7], in [8], in assay [9], in assay [10], in [11] and in assay [12] was greater than 100 µM each time. For the same molecule, the TGI in [13] and in assay [14] was greater than 100 µM each time.

`COc1c2c(c(OC)c3c1c(=O)c1ccccc1n3C)OCO2`: the TGI in [1] was greater than 100 µM; in [2], greater than 100 µM; in [3], 53.9 µM; in assay [4] it was greater than 100 µM; in assay [16] it was greater than 100 µM; in [5], greater than 100 µM. Besides, the TGI in [7] is greater than 100 µM; in assay [8] it was greater than 100 µM; in assay [9], greater than 100 µM; in assay [10] it was greater than 100 µM; in assay [11] it was greater than 90.7 µM; in assay [12], greater than 100 µM. The TGI in assay [13], in assay [14] and in assay [15] was greater than 100 µM each time.

For `COc1c(CC=C(C)C)c(O)c(C(CC(C)C)c2c(O)c(C(C)=O)c(O)c3c2OC(C(C)(C)O)C3)c(O)c1C(C)=O` (stereo not given), the TGI in [1] was greater than 12.5 µM; in assay [2] it was greater than 12.5 µM; in assay [3], greater than 12.5 µM; in assay [4] it was greater than 12.5 µM; in assay [16], 5.21 µM; in assay [5], greater than 12.5 µM. For the same molecule, the TGI in assay [6], in assay [7], in [8], in [9], in [11] and in assay [12] was greater than 12.5 µM throughout. Besides, in assay [13], the TGI came to 8.36 µM.

For the molecule `Cc1ccc2c(c1)SSSSS2`, the TGI in assay [1] was determined as 48.7 µM; in assay [2], 34.9 µM; in assay [3], 97.9 µM; in assay [4], 30 µM; in [16] it was 34.5 µM; in assay [5], 69.6 µM. In addition, the TGI in assay [6] was found to be 44.6 µM; in assay [7], 40.5 µM; in assay [8] it was 46.9 µM; in assay [9] it was 53.7 µM; in [10], 37 µM; in assay [12] it was 37.1 µM. Besides, the figures for the TGI in assay [13], in [14] and in [15] were 29 µM, 37.9 µM and greater than 100 µM, respectively.

As for `CN1C2CCC1CC(OC(c1ccccc1)c1ccccc1)C2` (stereo not given), the TGI came out at 39.7 µM in assay [1]; 59.2 µM in [2]; 23.7 µM in [3]; 78.8 µM in [4]; 29.1 µM in [16]; 33.5 µM in assay [5]. Besides, the TGI in assay [6] was 28.1 µM; in assay [7], 47 µM; in assay [8] it was 41.2 µM; in assay [9], 29.9 µM; in assay [10] it was 23.5 µM; in assay [12], 27.6 µM. Also, the TGI in [13] is 80.1 µM; in assay [14] it was 44.5 µM; in assay [15], 28.9 µM.

For the molecule `CC(C)(C)OC(=O)[N+](=N)C(=O)C1CCC(=O)N1C(=O)OCc1ccccc1` (stereo not given), the TGI in assay [1], in [2], in [3], in assay [16], in assay [5] and in assay [6] was greater than 100 µM each time. The TGI in assay [7], in [8], in assay [9], in [10], in assay [12] and in assay [13] was greater than 100 µM throughout. The TGI in assay [14] and in [15] was greater than 100 µM in each case.

Turning to `CN(C1=NCCO1)c1cccc2ccccc12`, the TGI in [1], in assay [2], in assay [3], in assay [4], in assay [5] and in [6] was greater than 10 µM throughout. The TGI in assay [7], in assay [8], in [9], in [10], in [11] and in assay [12] was greater than 10 µM in each case. Moreover, the TGI in assay [13], in assay [14] and in assay [15] was greater than 10 µM throughout.

For `CC(=O)N=C(N=Nc1c(O)[nH]c2ccc(C)cc12)NC(C)=O`, the TGI in assay [1], in assay [2], in assay [3], in assay [4], in assay [16] and in assay [5] was greater than 100 µM throughout. Moreover, the TGI in assay [6], in assay [8], in [9], in assay [10], in [12] and in assay [13] was greater than 100 µM each time. The TGI in assay [14] and in [15] was greater than 100 µM throughout.
